Measured values: ChEMBL document CHEMBL1201862, “PubChem BioAssay data set” (2004)
Calls of active or inactive are those of the source.

How the values were obtained:
[1] = A Cell Based Secondary Assay To Explore Cytotoxicity of Compounds that Sensitize Mycobacterium Tuberculosis to Beta-Lactam Antibiotics.; format: functional
[2] = target: Melanin-concentrating hormone receptor 1 (Homo sapiens, UniProt Q99705); test: Fluorescence-based counterscreen for antagonists of the G-protein coupled receptor 7 (GPR7): cell-based high throughput dose response assay to identify antagonists of the melanin-concentrating hormone receptor 1 (MCHR1).; format: functional
[3] = target: T1, Neuropeptides B/W receptor type 1 (Homo sapiens, UniProt P48145); test: Fluorescence-based dose response cell-based high throughput screening assay to identify antagonists of the G-protein coupled receptor 7 (GPR7). [Related pubchem assays: 1952 (Screening assay (GPR7 antagonists).), 1880 (Summary AID.)]; format: functional
T1 sequence (P48145 whole entry): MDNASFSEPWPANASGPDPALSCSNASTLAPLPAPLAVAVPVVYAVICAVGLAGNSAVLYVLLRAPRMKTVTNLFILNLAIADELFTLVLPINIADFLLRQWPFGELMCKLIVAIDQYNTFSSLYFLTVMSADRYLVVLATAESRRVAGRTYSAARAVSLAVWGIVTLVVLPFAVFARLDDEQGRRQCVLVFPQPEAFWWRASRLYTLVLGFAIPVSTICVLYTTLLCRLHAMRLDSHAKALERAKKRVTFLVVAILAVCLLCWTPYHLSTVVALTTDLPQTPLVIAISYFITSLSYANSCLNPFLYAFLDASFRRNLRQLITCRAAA

[4] = target: Glucose-6-phosphate 1-dehydrogenase (Homo sapiens, UniProt P11413); test: inhibition of Homo sapiens G6PD, dose series – biochemical, fluorescence, selectivity assay for P. falciparum G6PD inhibitor project, dose response (AID 504792); format: functional
[5] = alpha-synuclein stem-loop luciferase translation blockers – H4 neuroglioma cells, luminescence, confirmation (AID 1988); format: functional, cell-based
[6] = non-specific 3'UTR reporter inhibition in Clone20-Shn3RL – cell-based, Renilla luciferase, cherry-picked, counter-screen for Shn3 inhibitor project, dose response (AID 624133); format: functional
Protein Wnt-3a = Protein Wnt-3a (Mus musculus, UniProt P27467); test: antagonism of Wnt3a pathway luciferase reporter – Wnt-LIGHT cells, luminescence, selectivity assay for Gli-SUFU antagonist project, dose response (AID 651570); format: functional; conditions: read-out: IC50_Mean;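 further: Wnt-LIGHT reporter cells stimulated with conditioned medium from Wnt3a-producing cells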
[7] = Luminescence Cell-Based Dose Response HTS to Identify Inhibitors of 5'UTR Stem-Loop Driven Prion Protein mRNA Translation in H4 Neuroglioblastoma Cells. [Related pubchem assays: 1827 (Project Summary), 1813 (Primary HTS)]; format: functional
[8] = loss of viability in HepG2 cells – cell-based, CellTiter-Glo, cherry-picked, cytotoxicity control for Shn3 inhibitor project, dose response (AID 624134); format: functional
[9] = luciferase reporter signal suppression in cells – H4 neuroglioma cells, luminescence, dose response (AID 1990); format: functional, cell-based
[10] = target: T2, Short transient receptor potential channel 4 (Mus musculus, UniProt Q9QUQ5); test: block of DAMGO-driven TRPC4 calcium entry – cell-based, HEK293 TRPC4/mu-opioid, Fluo-4 calcium, dose response (AID 434942); format: functional;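 further: potency of inhibitors blocking the TRPC4 calcium response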
T2 sequence (Q9QUQ5 whole entry): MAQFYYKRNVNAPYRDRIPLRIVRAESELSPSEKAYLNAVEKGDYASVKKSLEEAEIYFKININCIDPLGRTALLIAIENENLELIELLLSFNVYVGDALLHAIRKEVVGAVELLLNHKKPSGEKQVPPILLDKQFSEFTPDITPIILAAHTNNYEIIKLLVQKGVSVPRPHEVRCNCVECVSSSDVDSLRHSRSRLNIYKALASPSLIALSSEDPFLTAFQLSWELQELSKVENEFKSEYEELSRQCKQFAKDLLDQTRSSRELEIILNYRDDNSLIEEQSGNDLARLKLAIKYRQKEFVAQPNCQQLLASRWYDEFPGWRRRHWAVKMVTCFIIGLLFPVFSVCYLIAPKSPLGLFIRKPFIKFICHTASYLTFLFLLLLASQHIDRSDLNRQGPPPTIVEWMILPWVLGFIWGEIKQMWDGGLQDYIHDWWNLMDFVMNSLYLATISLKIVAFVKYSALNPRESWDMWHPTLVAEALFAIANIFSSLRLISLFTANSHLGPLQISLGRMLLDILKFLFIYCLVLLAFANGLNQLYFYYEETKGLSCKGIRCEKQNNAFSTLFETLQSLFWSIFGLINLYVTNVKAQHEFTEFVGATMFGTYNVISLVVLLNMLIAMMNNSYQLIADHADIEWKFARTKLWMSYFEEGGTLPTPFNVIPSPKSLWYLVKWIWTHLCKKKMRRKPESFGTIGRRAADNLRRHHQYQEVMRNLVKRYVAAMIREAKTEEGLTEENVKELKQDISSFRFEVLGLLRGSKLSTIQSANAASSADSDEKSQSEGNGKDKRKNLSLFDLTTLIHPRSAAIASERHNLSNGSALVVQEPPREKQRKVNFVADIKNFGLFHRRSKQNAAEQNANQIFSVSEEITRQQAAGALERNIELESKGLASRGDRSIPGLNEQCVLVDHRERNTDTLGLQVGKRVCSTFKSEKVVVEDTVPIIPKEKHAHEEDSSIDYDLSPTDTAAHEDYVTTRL

[11] = reduction of Shn3 3'UTR-driven luciferase in osteoblasts – cell-based, Clone20 osteoblasts, firefly luciferase, cherry-picked, dose response (AID 624132); format: functional;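 further: firefly luciferase luminescence from reporter carrying the Shn3 3'UTR in osteoblasts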
[12] = target: T2, Short transient receptor potential channel 4; test: calcium entry via TRPC4 opening agents – cell-based, HEK293 TRPC4/mu-opioid, Fluo-4 calcium, dose response (AID 434937); format: functional
HEK293 [13] = test: NOD2 signaling inhibitors in MDP-stimulated cells, cell-based, uHTS, luminescence (AID 2001); format: functional; conditions: Homo sapiens
[14] = Luminescence Cell-Based Dose Retest to Confirm Inhibitors of Cancer Stem Cells. [Related pubchem assays (depositor defined):AID2717, AID2721]; format: functional; conditions: Homo sapiens
[15] = target: Nucleotide-binding oligomerization domain-containing protein 2 (Homo sapiens, UniProt Q9HC29); test: inhibition of NOD2-driven NF-kB reporter – cell-based, luminescence, uHTS, HEK293 (AID 1566); format: functional
HEK293 [16] = test: inhibition of NOD1-driven NF-kB reporter – cell-based, luminescence, uHTS, primary screen (AID 1578); format: functional; conditions: Homo sapiens
INS1 = test: INS-1E survival protection against cytokine death – cell-based, luminescence, retest, dose response (AID 449756); format: functional; conditions: Rattus norvegicus;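 further: cell death triggered by IL-1 beta plus TNF-alpha plus IFN-gamma mixture; protective hits raise ATP signal compared with cytokine alone wells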
HEK293 [17] = test: cells; format: functional, cell-based; conditions: Homo sapiens
HEK293 [18] = test: cells; format: functional, cell-based; conditions: Homo sapiens; remark: listed apart in the source
HEK293 [19] = test: cells; format: functional, cell-based; conditions: Homo sapiens; remark: listed apart in the source
[20] = A cytotoxicity screen of small molecule inhibitors of the PhoP region in Salmonella typhi identified in the primary screen. [Related pubchem assays: 1850, 1864, 1985 ]; format: functional
[21] = target: T3, Alkaline phosphatase, tissue-nonspecific isozyme (Homo sapiens, UniProt P05186); test: potency against alkaline phosphatase TNAP – biochemical, luminescent, dose response, SAR follow-up (AID 1056)
T3 sequence (P05186 whole entry): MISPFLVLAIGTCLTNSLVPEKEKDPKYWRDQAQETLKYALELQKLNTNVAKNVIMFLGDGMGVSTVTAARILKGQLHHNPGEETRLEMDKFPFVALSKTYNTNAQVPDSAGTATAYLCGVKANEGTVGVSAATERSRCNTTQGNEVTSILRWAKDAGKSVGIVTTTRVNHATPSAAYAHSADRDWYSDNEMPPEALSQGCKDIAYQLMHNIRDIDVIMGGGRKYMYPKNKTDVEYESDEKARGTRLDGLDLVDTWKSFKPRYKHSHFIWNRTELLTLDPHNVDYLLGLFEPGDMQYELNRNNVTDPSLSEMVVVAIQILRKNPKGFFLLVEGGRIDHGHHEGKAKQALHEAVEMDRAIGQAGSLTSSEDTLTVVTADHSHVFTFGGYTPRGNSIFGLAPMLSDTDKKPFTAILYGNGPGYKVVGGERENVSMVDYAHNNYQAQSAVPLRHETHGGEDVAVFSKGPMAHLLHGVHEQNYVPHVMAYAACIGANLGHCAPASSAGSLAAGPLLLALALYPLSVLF

[22] = target: Glyceraldehyde-3-phosphate dehydrogenase (Homo sapiens, UniProt P04406)
[23] = HIV-1 AD8 envelope cell-cell fusion blockers – cherry-pick, dose response (AID 652062); format: functional, cell-based;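 further: luciferase signal from cell-cell fusion driven by HIV-1 clade B AD8 Env; potency is for inhibitors of fusion seen as a drop in luminescence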
[24] = off-target signal loss in HeLa-CEM21 co-culture – HeLa F-luc CTL cells, cherry-picked, counter-screen for HIV-1 Env fusion inhibitor project, dose response (AID 652040); format: functional, cell-based;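 further: potency for signal decrease marking cytotoxic or nonspecific inhibition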
[25] = blockers of HIV-1 envelope-mediated cell-cell fusion – cherry-pick, dose response (AID 652057); format: functional, cell-based
[26] = blockers of HIV-1 ZM109 envelope-driven cell-cell fusion – HeLa effector, CEM target cells, luciferase, cherry-pick, dose response (AID 652058); format: functional, cell-based;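 further: luciferase signal from HIV-1 Env mediated cell-cell fusion of effector and target cells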
[27] = viability loss in CEM21 cells – cell-based, CellTiter-Glo luminescence, cherry-picked, cytotoxicity control for viral fusion inhibitor project, dose response (AID 652042); format: functional;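 further: potency for signal decrease meaning cytotoxicity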
[28] = target: T4, Polyadenylate-binding protein 1 (Homo sapiens, UniProt P11940); test: MLLE binding blockers, Cy5 peptide tracer – biochemical, fluorescence polarization, Cy5-PAM2 peptide, secondary, miRNA deadenylation inhibitor project, dose response (AID 602260); format: functional; conditions: read-out: IC50_Mean
[29] = target: T4, Polyadenylate-binding protein 1; test: MLLE domain peptide-binding blockers, IC50 – biochemical, fluorescence polarization, FITC-PAM2 peptide, dose response (AID 602259); format: functional; conditions: read-out: IC50_Mean
[30] = growth inhibition of yeast DHODH-expressing 3D7 parasites – SYBR Green, dry powder samples, dose response (AID 1159570); format: functional, cell-based;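 further: parasite growth measured after 72 hours of compound exposure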
[31] = P. falciparum Dd2 growth inhibitors, dose response, SYBR Green, cherry-picked samples (AID 1159567); format: functional, cell-based
[32] = growth inhibition of PfATP4-mutant resistant parasites – NITD609-resistant line, SYBR Green, dry powder, dose response (AID 1159571); format: functional, cell-based;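 further: parasites synchronized at ring stage by sorbitol before testing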
[33] = Dd2 malaria parasite growth inhibition potency – SYBR Green, dry powder samples, dose response (AID 1159566); format: functional, cell-based;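 further: potency for growth inhibition with lower SYBR green DNA signal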

Sequence of Melanin-concentrating hormone receptor 1 (Q99705 whole entry): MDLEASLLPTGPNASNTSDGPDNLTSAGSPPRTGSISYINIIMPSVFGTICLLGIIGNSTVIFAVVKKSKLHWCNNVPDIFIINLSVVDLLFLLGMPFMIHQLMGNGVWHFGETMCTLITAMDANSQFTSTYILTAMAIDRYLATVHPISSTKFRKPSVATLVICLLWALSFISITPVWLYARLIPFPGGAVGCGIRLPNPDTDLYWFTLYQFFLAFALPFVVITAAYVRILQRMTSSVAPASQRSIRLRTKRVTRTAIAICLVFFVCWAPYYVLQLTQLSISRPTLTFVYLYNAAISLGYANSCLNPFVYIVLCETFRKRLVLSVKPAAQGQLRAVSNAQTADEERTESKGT
T4 sequence (P11940 whole entry, the tested form may be a part): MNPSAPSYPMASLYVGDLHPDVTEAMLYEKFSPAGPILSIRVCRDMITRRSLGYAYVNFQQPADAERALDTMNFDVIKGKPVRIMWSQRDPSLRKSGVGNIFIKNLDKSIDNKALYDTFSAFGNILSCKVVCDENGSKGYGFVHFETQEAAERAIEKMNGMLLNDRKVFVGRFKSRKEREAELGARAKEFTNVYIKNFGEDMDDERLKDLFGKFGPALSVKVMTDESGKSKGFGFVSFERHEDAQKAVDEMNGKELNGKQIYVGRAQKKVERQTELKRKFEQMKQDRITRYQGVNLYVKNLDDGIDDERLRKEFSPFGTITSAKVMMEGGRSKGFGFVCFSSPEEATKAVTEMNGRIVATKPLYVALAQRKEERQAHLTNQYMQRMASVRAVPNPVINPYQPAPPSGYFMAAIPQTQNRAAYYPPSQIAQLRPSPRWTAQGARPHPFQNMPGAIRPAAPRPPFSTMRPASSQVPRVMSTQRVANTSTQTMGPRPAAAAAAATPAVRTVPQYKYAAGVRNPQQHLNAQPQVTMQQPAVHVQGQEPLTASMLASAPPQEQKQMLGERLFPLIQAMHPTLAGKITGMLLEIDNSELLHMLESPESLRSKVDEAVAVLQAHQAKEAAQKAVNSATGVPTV
Sequence of Protein Wnt-3a (P27467 whole entry): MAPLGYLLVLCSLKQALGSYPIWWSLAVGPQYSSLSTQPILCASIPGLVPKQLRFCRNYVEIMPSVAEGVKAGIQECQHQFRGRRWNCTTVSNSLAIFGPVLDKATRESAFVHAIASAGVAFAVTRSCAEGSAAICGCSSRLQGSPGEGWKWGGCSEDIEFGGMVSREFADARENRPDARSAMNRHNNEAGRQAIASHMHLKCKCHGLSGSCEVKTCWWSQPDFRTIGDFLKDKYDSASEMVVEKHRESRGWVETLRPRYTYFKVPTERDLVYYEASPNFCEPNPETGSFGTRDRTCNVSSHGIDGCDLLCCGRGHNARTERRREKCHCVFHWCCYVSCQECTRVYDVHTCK
Sequence of Nucleotide-binding oligomerization domain-containing protein 2 (Q9HC29 whole entry, the tested form may be a part): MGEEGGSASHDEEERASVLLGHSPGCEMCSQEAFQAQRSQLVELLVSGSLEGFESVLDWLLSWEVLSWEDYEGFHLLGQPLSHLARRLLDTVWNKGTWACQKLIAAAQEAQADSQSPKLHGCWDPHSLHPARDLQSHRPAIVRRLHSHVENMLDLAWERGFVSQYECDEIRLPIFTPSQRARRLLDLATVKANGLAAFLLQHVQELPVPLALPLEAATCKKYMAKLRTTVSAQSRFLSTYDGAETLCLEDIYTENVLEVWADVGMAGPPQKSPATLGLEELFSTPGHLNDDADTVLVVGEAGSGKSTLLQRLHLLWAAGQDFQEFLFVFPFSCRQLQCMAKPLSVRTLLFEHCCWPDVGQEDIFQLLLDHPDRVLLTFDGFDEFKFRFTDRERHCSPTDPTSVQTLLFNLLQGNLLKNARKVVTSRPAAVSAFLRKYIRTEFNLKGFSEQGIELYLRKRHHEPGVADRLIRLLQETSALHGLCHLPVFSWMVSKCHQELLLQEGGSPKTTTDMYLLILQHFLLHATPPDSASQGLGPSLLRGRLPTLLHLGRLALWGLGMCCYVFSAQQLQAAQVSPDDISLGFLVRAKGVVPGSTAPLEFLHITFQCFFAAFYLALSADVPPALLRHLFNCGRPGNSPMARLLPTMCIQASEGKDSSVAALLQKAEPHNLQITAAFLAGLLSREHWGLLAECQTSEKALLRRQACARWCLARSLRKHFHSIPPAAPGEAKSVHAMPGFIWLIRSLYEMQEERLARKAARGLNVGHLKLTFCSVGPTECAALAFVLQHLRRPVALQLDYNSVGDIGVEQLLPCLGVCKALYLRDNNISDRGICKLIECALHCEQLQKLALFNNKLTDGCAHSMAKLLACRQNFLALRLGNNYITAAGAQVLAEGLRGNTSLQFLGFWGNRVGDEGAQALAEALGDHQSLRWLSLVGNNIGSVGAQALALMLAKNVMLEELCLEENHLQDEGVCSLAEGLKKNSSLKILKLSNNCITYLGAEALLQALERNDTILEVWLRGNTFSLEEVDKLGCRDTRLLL
Sequence of Glyceraldehyde-3-phosphate dehydrogenase (P04406 whole entry, the tested form may be a part): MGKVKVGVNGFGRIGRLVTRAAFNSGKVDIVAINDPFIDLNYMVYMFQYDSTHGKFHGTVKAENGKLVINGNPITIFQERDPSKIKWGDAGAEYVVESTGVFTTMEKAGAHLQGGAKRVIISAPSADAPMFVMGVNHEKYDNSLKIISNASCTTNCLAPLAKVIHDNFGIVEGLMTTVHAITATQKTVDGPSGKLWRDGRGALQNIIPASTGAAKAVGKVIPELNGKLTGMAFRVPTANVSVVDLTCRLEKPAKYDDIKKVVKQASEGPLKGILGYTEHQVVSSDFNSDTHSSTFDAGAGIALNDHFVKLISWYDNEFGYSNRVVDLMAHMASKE
Sequence of Glucose-6-phosphate 1-dehydrogenase (P11413 whole entry): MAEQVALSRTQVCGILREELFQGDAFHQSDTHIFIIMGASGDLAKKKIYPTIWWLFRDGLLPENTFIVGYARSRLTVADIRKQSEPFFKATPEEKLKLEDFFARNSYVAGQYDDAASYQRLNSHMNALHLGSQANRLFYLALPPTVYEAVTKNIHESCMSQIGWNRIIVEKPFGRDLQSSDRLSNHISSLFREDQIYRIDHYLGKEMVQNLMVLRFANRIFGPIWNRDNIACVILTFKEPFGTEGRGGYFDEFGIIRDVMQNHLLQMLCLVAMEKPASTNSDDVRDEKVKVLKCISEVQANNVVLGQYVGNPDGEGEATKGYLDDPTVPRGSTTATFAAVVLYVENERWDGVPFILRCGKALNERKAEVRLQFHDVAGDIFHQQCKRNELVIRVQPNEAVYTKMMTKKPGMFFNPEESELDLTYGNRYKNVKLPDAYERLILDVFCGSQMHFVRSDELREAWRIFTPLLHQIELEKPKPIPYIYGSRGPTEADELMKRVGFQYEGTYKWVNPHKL

## N=C(NC(=O)c1ccccc1NC(=O)c1ccccc1)Nc1nc2ccccc2o1
[1]
  CC50: > 40 µM (active)

## CCCCn1c(N)c(N(CC(C)C)C(=O)c2ccc(COc3ccccc3)o2)c(=O)[nH]c1=O
[2]
  IC50: > 43.8 µM (not active)
[3]
  IC50: > 43.8 µM (not active)

## CCc1ccc(N(C(=O)c2csnn2)C(C(=O)NC2CCCCC2)c2ccncc2)cc1 (stereo not given)
[2]
  IC50: > 43.8 µM (not active)
[3]
  IC50: > 43.8 µM (not active)

## CCC1(CC)Cc2ccccc2C(N)=C1C#N
[4]
  IC50: > 80 µM (inactive)
[1]
  CC50: > 40 µM (active)

## COc1ccccc1NS(=O)(=O)c1cccc(C(=O)NC2CCN(Cc3ccccc3)CC2)c1
[5]
  EC50: > 120 µM (not active)
[6]
  AC50: 1.8 µM (active)
Protein Wnt-3a
  IC50: 4.3 µM (active)
[7]
  EC50: > 120 µM (not active)
[8]
  AC50: 0.52 µM (active)
[9]
  EC50: > 120 µM (not active)
[10]
  EC50: 0.376 µM (active)
[11]
  AC50: 1.95 µM (active)
[12]
  EC50: 0.944 µM (active)

## C=CCc1cc(Cl)ccc1OCCCNC(C)CC (stereo not given)
[1]
  CC50: > 40 µM (active)

## CC(C)(C)C1CCC2(CC1)C(C#N)=C(SCC(=O)NC1CCCCC1)NC(=O)C2C#N (stereo not given)
HEK293 [13]
  IC50: 9.18 µM (active)
[14]
  AC50: 6.34 µM (active)
[15]
  EC50: 17.6 µM (active)
HEK293 [16]
  EC50: 6.58 µM (active)
INS1
  AC50: 8.73 µM (active)
HEK293 [17]
  IC50: > 20 µM (inactive)
HEK293 [18]
  IC50: 13.6 µM (active)
HEK293 [19]
  IC50: 9.32 µM (active)

## CCCCC(c1nnnn1C1CCCC1)N1CCN(C2CCCCC2)CC1 (stereo not given)
[2]
  IC50: > 43.8 µM (not active)
[3]
  IC50: > 43.8 µM (not active)

## Cc1ccnc(NC(=O)CCC(=O)N(CC(=O)NC2CCCCC2)C2CCCC2)c1
[20]
  EC50: > 50 µM (active)

## CCN(CC(=O)Nc1cccc(C#N)c1)CC(=O)Nc1cccc(OC)c1
[2]
  IC50: 27.9 µM (not active)
[3]
  IC50: > 43.8 µM (not active)

## COc1ccc(S(=O)(=O)Nc2ccc3ccccc3c2)cc1OC
[21]
  IC50: > 100 µM (inactive)
[22]
  IC50: > 100 µM (not active)

## Cc1nc(Nc2nc(O)cc(CSc3nc4ccccc4[nH]3)n2)nc2ccccc12
[23]
  AC50: 10.3 µM (active)
[24]
  AC50: 8.15 µM (active)
[14]
  AC50: 3.58 µM (active)
[25]
  AC50: 6.8 µM (active)
[26]
  AC50: 7.51 µM (active)
[27]
  AC50: 11.2 µM (active)

## Nc1c(-c2ccccc2)sc2ccc3ccccc3[n+]12
[28]
  IC50: > 66 µM (inactive)
[20]
  EC50: > 50 µM (active)
[29]
  IC50: > 66 µM (inactive)

## CC1CCCN(CCOCCOc2ccccc2-c2ccccc2)C1 (stereo not given)
[10]
  EC50: 0.335 µM (active)
[12]
  EC50: 0.421 µM (active)

## Cc1ncc(CCl)c2c1OC(C)(C)OC2
[1]
  CC50: > 40 µM (active)

## c1cc(N2CCCC2)ccc1C(c1nnnn1C1CCCCC1)N1CCOCC1 (stereo not given)
[20]
  EC50: > 50 µM (active)

## CCOc1ccc(C(C)(C)C)cc1S(=O)(=O)Nc1cccnc1
[21]
  IC50: 12.5 µM (active)

## CC(C)(C)[S+]([O-])N1Cc2cc(C(=O)NCc3ccc(Oc4ccccc4)cc3)nc(-c3cccc(-c4cccc(F)c4)c3)c2[C@@H]1CCO (stereo not given in full)
[30]
  AC50: 0.831 µM (active)
[31]
  AC50: 1.23 µM (active)
[32]
  AC50: 0.417 µM (active)
[33]
  AC50: 0.658 µM (active)
